# Assay results: ChEMBL document CHEMBL5465560, “Selectivity Literature for EUbOPEN Chemogenomic Library” (2024)
# Columns and labels:
# [1] = biological target: Serine/threonine-protein kinase PAK 1 (Homo sapiens) (UniProt Q13153); experiment: Selectivity interaction (Kinase screening (Nanosyn)) EUB0000604a PAK1
# [2] = biological target: Dual specificity testis-specific protein kinase 1 (Homo sapiens) (UniProt Q15569); experiment: Selectivity interaction (KinomeScan (DiscoverX)) EUB0001049a TESK1; details: at 1 µM
# [3] = biological target: Cyclin-dependent kinase 16 (Homo sapiens) (UniProt Q00536); experiment: Selectivity interaction (Ambit KINOMEscan and KiNATiv profiling in Jurkat cells) EUB0000090b CDK16; assay type: cell-based; details: at 1 µM
# [4] = biological target: Leucine-rich repeat serine/threonine-protein kinase 2 (Homo sapiens, UniProt Q5S007); experiment: (§1) Selectivity interaction (Ambit KINOMEscan and KiNATiv profiling in Jurkat cells) EUB0000090b LRRK2; assay type: cell-based; details: at 1 µM
# [5] = test system: Leucine-rich repeat serine/threonine-protein kinase 2 (Homo sapiens), Q5S007 [G2019S]; experiment: as §1; assay type: cell-based; details: at 1 µM
# [6] = biological target: Tyrosine-protein kinase Lyn (Homo sapiens, UniProt P07948); experiment: Selectivity interaction (Kinase panel (Invitrogen)) EUB0000639a LYN; details: at 200 nM
# Chain of Tyrosine-protein kinase Lyn (P07948 2-512 limits assumed): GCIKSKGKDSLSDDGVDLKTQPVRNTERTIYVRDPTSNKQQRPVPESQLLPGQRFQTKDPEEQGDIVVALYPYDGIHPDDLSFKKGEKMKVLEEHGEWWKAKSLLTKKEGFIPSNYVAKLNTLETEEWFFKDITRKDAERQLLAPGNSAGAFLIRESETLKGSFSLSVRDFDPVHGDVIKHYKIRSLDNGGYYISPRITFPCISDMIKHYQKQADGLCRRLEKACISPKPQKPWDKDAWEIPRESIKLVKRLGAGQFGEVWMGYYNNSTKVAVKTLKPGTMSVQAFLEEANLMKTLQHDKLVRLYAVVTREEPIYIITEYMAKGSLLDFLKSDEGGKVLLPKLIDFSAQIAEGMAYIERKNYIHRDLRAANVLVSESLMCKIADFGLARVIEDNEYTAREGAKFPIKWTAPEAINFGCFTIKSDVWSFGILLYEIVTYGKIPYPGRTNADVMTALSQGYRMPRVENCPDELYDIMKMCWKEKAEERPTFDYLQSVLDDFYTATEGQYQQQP
# [7] = biological target: STE20-like serine/threonine-protein kinase (Homo sapiens, UniProt Q9H2G2); experiment: Selectivity interaction (ActivX KiNativ screen (kinase selectivity in THP-1 cell lysates)) EUB0000639a SLK; assay type: subcellular; details: lysate, at 0.2 µM
# Chain of STE20-like serine/threonine-protein kinase (Q9H2G2 whole entry, looked up): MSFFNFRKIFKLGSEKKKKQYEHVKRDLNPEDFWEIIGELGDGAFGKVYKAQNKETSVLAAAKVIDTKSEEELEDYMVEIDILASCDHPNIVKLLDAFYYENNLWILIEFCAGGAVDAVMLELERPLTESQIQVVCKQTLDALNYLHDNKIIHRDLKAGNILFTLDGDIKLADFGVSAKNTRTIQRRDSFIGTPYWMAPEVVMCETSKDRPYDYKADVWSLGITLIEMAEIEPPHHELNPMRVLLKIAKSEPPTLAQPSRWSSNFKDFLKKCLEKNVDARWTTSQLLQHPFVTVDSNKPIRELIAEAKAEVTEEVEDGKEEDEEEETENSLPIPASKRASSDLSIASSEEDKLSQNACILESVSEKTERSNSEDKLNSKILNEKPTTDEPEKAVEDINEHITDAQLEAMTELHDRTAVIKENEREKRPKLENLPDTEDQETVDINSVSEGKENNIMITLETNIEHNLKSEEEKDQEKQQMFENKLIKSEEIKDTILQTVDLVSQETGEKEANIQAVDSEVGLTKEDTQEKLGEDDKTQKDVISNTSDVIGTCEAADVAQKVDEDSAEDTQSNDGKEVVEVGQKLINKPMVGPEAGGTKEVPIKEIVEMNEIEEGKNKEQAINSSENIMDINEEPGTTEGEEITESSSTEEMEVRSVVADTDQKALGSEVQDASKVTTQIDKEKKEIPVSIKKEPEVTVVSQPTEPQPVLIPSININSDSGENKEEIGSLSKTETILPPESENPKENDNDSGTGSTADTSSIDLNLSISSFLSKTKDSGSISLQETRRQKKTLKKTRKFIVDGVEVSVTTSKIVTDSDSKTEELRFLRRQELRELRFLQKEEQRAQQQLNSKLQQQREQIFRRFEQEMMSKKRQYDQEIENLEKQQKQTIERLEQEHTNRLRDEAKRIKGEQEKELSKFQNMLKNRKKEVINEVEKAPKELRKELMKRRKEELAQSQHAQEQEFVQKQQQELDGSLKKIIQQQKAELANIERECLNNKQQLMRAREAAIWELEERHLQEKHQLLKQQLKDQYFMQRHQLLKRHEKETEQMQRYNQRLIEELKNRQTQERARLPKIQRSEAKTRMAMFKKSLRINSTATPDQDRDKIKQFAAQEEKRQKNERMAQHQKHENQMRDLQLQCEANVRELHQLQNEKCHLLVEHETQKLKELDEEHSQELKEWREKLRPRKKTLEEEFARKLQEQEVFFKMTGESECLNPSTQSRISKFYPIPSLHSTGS
# [8] = biological target: Cyclin-dependent kinase 15 (Homo sapiens) (UniProt Q96Q40); experiment: Selectivity interaction (KinomeScan (DiscoverX)) EUB0000695a CDK15; details: at 100 nM
# [9] = biological target: Cyclin-dependent kinase 5 (Homo sapiens, UniProt Q00535); details: at 10 µM
# Chain of Cyclin-dependent kinase 5 (Q00535 whole entry, looked up): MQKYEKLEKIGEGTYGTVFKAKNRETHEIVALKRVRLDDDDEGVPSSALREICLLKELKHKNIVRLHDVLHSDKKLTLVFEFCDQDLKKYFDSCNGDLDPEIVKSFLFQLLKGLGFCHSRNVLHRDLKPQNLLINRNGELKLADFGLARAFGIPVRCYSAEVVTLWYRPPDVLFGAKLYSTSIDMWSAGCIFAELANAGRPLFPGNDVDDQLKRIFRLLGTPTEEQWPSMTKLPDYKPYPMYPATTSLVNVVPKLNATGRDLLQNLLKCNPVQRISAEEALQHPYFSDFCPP
# [10] = biological target: T1, Phosphatidylinositol 5-phosphate 4-kinase type-2 beta (Homo sapiens) (UniProt P78356); details: at 10 µM
# T1 sequence (whole entry): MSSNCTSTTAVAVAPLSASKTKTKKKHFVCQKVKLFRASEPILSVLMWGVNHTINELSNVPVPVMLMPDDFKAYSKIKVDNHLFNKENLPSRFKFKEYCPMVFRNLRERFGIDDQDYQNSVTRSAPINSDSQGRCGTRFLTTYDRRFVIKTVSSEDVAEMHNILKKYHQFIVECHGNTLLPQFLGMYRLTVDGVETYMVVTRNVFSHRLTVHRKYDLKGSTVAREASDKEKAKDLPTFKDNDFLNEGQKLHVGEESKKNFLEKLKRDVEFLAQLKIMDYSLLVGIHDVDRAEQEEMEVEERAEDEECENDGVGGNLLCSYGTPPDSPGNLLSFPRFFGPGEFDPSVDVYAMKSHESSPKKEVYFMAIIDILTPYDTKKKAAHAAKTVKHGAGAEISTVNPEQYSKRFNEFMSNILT
# [11] = biological target: T2, Histone-lysine N-methyltransferase SMYD3 (Homo sapiens) (UniProt Q9H7B4); experiment: Selectivity interaction (Methyltransferase screen (radiometric assays, panel of 8 PRMTs, 21 protein lysine methyltransferases, 3 DNA methyltransferases, and one RNA methyltransferase)) EUB0000271b SMYD3
# T2 sequence (whole entry): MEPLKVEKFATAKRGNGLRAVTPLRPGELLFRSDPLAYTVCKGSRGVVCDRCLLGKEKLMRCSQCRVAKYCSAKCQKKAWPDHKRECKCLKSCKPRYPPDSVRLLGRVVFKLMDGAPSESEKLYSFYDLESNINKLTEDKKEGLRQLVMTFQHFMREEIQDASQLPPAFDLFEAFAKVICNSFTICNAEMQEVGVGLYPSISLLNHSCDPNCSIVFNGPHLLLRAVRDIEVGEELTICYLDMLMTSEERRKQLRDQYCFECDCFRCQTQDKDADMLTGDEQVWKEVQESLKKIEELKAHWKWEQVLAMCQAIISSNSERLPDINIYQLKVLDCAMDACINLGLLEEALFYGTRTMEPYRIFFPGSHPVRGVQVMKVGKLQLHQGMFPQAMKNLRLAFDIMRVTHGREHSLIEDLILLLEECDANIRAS
# [12] = biological target: Dual specificity tyrosine-phosphorylation-regulated kinase 1B (Homo sapiens, UniProt Q9Y463); experiment: Selectivity interaction (KinomeScan (DiscoverX)) EUB0000595a DYRK1B; details: at 10 µM
# Chain of Dual specificity tyrosine-phosphorylation-regulated kinase 1B (Q9Y463 whole entry, looked up): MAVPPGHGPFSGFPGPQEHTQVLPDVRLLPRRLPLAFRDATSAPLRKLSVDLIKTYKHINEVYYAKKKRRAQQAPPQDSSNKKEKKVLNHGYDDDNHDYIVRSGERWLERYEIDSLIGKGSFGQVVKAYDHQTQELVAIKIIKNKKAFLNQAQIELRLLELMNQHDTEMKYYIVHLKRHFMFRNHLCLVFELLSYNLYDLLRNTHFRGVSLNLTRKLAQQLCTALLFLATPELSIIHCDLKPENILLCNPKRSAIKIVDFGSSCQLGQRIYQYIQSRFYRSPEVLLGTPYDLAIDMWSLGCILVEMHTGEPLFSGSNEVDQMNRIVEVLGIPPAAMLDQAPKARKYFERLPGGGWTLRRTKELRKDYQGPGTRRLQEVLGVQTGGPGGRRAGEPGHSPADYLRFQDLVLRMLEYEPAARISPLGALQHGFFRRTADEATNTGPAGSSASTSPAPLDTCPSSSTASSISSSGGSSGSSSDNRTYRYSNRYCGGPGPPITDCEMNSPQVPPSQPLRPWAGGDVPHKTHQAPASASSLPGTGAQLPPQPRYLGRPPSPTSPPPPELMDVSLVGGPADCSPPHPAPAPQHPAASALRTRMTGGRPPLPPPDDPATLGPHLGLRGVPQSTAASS
# [13] = biological target: CDK6/cyclin D3 (Homo sapiens) (UniProt P30281+Q00534); experiment: (§2) Selectivity interaction (ProQinase) EUB0000171b CDK6; assay type: protein-complex assay
# [14] = biological target: CDK6/cyclin D1 (Homo sapiens) (UniProt P24385+Q00534); experiment: as §2; assay type: protein-complex assay
# [15] = biological target: T3, Tyrosine-protein kinase TXK (Homo sapiens) (UniProt P42681); experiment: Selectivity interaction (ProQinase) EUB0000171b TXK
# T3 sequence (whole entry): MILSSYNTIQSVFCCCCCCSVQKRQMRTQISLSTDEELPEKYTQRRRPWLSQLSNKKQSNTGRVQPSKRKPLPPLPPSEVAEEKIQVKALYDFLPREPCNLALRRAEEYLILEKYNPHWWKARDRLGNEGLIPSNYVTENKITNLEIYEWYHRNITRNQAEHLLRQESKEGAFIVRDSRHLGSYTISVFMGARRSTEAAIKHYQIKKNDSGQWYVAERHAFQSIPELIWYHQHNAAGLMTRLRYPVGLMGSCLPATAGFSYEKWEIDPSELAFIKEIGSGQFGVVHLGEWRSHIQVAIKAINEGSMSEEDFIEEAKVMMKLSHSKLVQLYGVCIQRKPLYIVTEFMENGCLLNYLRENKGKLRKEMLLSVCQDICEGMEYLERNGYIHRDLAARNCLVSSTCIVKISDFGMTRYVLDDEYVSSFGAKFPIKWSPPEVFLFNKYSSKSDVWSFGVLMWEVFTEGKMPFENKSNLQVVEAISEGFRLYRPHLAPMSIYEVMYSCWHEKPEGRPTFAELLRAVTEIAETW
# [16] = biological target: Protein kinase C eta type (Homo sapiens) (UniProt P24723); experiment: Selectivity interaction (ProQinase) EUB0000171b PRKCH
# Chain of Protein kinase C eta type (Homo sapiens) (P24723 whole entry): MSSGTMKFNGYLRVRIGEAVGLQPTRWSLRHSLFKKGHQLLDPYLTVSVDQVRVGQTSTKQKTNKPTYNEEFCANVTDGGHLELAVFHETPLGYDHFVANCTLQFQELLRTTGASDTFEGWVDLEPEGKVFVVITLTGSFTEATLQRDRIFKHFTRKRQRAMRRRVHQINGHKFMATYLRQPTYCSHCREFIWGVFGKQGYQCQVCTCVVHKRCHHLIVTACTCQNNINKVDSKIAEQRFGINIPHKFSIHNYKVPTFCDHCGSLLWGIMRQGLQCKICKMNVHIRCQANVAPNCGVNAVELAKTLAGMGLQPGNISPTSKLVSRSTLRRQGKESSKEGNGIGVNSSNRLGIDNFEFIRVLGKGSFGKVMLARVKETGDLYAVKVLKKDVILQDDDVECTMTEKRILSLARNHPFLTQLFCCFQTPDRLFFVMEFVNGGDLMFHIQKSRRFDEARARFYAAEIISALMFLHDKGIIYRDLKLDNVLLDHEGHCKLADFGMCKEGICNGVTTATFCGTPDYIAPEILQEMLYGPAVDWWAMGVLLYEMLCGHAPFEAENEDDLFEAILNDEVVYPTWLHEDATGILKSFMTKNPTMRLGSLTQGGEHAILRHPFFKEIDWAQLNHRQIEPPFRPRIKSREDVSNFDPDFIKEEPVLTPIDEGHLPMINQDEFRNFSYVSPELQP
# [17] = biological target: Bromodomain testis-specific protein (Homo sapiens) (UniProt Q58F21); experiment: Selectivity interaction (Human bromodomain panel (DSF assay)) EUB0000233b BRDT
# [18] = biological target: Wee1-like protein kinase 2 (Homo sapiens) (UniProt P0C1S8); experiment: Selectivity interaction (KinomeScan (DiscoverX)) EUB0000045b WEE2
# Chain of Wee1-like protein kinase 2 (Homo sapiens) (P0C1S8 whole entry, looked up): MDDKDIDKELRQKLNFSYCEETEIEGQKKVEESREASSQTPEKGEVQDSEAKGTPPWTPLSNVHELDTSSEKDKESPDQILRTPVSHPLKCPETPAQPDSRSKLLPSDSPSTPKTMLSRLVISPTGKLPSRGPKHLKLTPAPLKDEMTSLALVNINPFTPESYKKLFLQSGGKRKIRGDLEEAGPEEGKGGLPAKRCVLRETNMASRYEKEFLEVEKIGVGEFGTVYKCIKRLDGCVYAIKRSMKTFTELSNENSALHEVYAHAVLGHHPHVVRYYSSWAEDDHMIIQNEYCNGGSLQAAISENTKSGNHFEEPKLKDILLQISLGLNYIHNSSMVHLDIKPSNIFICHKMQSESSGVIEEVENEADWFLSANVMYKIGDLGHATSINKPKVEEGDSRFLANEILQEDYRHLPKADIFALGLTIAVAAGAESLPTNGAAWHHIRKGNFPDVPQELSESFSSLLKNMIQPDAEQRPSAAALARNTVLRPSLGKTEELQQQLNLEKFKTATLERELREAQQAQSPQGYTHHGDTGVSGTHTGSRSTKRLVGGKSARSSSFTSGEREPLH
# [19] = biological target: Ephrin type-A receptor 7 (Homo sapiens) (UniProt Q15375); experiment: Selectivity interaction (KinomeScan (DiscoverX)) EUB0000045b EPHA7
# Chain of Ephrin type-A receptor 7 (Homo sapiens) (Q15375 28-998 limits assumed): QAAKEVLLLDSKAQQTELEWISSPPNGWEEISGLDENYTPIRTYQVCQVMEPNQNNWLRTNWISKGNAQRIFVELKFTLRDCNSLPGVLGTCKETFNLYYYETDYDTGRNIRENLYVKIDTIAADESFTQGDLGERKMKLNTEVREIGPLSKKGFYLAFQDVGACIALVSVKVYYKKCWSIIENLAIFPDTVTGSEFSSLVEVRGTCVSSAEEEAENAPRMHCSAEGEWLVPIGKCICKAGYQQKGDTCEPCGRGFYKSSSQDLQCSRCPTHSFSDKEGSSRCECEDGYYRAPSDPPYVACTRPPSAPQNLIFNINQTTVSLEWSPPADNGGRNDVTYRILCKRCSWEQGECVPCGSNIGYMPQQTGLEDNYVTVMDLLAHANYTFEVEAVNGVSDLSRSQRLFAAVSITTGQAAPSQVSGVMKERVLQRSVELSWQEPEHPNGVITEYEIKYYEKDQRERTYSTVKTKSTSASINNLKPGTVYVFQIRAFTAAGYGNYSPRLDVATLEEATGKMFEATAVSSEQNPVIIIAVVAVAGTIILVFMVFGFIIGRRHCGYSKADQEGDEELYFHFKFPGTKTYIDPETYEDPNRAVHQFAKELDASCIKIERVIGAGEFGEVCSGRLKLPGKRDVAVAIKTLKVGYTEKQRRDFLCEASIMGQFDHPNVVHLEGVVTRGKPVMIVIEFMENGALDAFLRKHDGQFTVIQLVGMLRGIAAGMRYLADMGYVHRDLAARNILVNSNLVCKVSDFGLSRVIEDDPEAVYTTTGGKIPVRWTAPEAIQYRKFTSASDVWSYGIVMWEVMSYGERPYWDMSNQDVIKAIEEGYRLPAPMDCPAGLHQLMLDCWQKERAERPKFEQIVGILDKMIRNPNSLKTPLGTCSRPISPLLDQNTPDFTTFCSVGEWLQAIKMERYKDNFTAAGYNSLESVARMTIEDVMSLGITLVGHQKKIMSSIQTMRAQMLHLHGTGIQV
compound,measurement,setting,value
Cc1cnc(Nc2ccc(F)cc2Cl)nc1-c1c[nH]c(C(=O)N[C@H](CO)c2cccc(Cl)c2)c1,% of inhibition,[1],3%
COc1cc(Nc2nc(C)cc(-c3cnn4nc(OC)ccc34)n2)cc(C(F)(F)F)c1,% of control,[2],73%
CN(C)C/C=C/C(=O)Nc1ccc(C(=O)N2CCCC(Nc3ncc(Cl)c(-c4c[nH]c5ccccc45)n3)C2)cc1 (stereo unspecified),% of control,[3],68%
same,% of control,[4],84%
same,% of control,[5],92%
CC[C@@H]1[C@H](F)C(=O)N[C@@H]1COc1nccc2cc(C(N)=O)c(OC)cc12 [ZIMLOVISERTIB],% of inhibition,[6],6.8%
same,% of inhibition,[7],-1.2%
Cc1cc(F)c(C(=O)Nc2cccc(-c3nncn3C(C)C)n2)cc1-n1cnc(C2CC2)c1,% of control,[8],100%
CCN(CC)CCCCNc1ncc2cc(-c3cc(OC)cc(OC)c3)c(NC(=O)NC(C)(C)C)nc2n1,% of control,[9],100%
same,% of control,[10],100%
Cc1cc(C)cc([C@@H]2c3cc(C)ccc3NC(=O)CN2C(=O)c2ccc(Br)s2)c1,% of activity,[11]; at 1 µM,100%
same,% of activity,[11]; at 10 µM,98.3%
COCC(=O)NC/C=C/c1ccc2ncnc(Nc3ccc(Oc4ccc(C)nc4)c(C)c3)c2c1 [CP-724714],% of control,[12],92%
C=CC(=O)Nc1cccc(C(=O)Nc2ccc(Nc3cc(-c4[nH]c(SC)nc4C)ccn3)cc2)c1,% of control,[13]; at 1 µM,93%
same,% of control,[13]; at 5 µM,86%
same,% of control,[14]; at 1 µM,91%
same,% of control,[14]; at 5 µM,87%
same,% of control,[15]; at 1 µM,87%
same,% of control,[15]; at 5 µM,77%
same,% of control,[16]; at 1 µM,91%
same,% of control,[16]; at 5 µM,78%
CN(C)CCCOc1ccc(-c2cc(NCCCn3cccn3)nc(S(C)(=O)=O)n2)cc1,dTM,[17],< 2 K
C=CC(=O)Nc1cc(-n2c(=O)ccc3cnc4ccc(-c5ccc(NS(C)(=O)=O)cc5)cc4c32)ccc1C,% of control,[18]; at 1 µM,66%
same,% of control,[18]; at 10 µM,100%
same,% of control,[19]; at 1 µM,100%
same,% of control,[19]; at 10 µM,85%
